# Patent US20110177161A1, “PHARMACEUTICAL COMPOSITIONS OF [5(S)-(2'-HYDROXYETHOXY)-20(S)-CAMPTOTHECIN” (DR. REDDY'S LABORATORIES LIMITED, priority 2007, published 2011)
# Assays:
# [1] = Physicochemical characteristics of drug substance, powder composition, blend and lyophilized product
# Excerpt: Another indication of the physicochemical characteristics of the powder composition is the density properties such as bulk and tapped density. Bulk density is described as untapped or tapped. Untapped bulk density of a substance is the undisturbed packing density of that substance and tapped bulk density relates to the packing density after tapping a bed of substance until no change in the packing density is seen. Bulk density and tapped density can be determined using compendial bulk density apparatus, the method being given in United States Pharmacopeia 29, United States Pharmacopeial Convention, Inc., Rockville, Md., 2005, at pages 2638-2639. A higher bulk density indicates a dense material allowing a higher dose to be filled into a given size capsule for example. The powder compositions can have bulk densities from about 0.8 g/ml to about 0.2 g/ml, or from about 0.6 g/ml to about 0.2 g/ml.
# The Hausner ratio is a measure of inter-particle friction and the potential powder arch or bridge strength and stability (Hausner, H. H. Friction conditions in a mass of metal powders. International Journal of Powder Metallurgy 1967, 3 (4), pages 7-13). It has been widely used to estimate the flow properties of powders, blends, granules and other such particles or aggregates and is expressed as the ratio of tapped bulk density to the untapped bulk density of the substance. Hausner ratio used herein is defined as ratio of tapped to untapped bulk densities. A Hausner ratio of <1.2 indicates good flow while ratio >1.5 indicate poor flow. The powder compositions can have a Hausner ratio less than 1.5 or less than 1.2.
# Carr index as used herein is defined as the percent compressibility which is a percentage ratio of the difference between tapped bulk density and initial bulk density to tapped bulk density. Carr index values between 5-15% represent materials with excellent flowability, values between 18-21% represent fair-flowability and values above 40% represent very poor flowability. The powder compositions of the invention can have Carr index values less than 40% or less than 21% or less than 15%.
# Table 1 describes the physicochemical characteristics of DRF-(5S,20S)-1042, which is used in the examples below.
# The powder composition and formulation blend along with their placebo have been characterized for their physical parameters and the data has been tabulated in table 11.
# After completion of lyophilization cycle the vials were sealed using 20 mm aluminum flip-off seals. The resulting lyophilized product was tested for various parameters as per Table 19.
# physchem = format: physicochemical; conditions: thermodynamic from solid
# Method: Excess amounts of DRF-(5S,20S)-1042 were added to different media including water, fasting state simulated intestinal fluid (FaSIF), fed state simulated intestinal fluid (FeSIF), aqueous sodium carbonate solution (0.1M, pH12.6), aqueous sodium hydroxide solution (0.1M, pH 12.73) and the suspensions were shaken at room temperature for 24 hours at 200 rpm in a mechanical shaker water bath till no further drug went into solution when checked visually. The suspensions were filtered through a 0.22 μm membrane filter (supplied by Millipore) and the content of DRF-(5S,20S)-1042 was quantified by using the HPLC method described above.
# [2] = Storage stability of powder composition and capsules (HPLC impurities, assay); format: physicochemical; conditions: Table 13; E* (S-isomer)
# Method: Samples are analyzed by HPLC using a Chiralcel OD-H 250×4.6 mm column with a 5 μm particle size, at a wavelength of 257 nm using a variable wavelength UV detector, and a mobile phase comprising buffer (0.01 M KH2PO4; pH 3.0±0.1): acetonitrile (68:32% v/v), flow rate 1 ml/minute.
# For the determination of the R-isomer impurity in the compositions, conditions essentially similar to the ones described above are used. The mobile phase comprises buffer (pH 3.0±0.1): acetonitrile (76:24% v/v).
# For impurities other than the R-isomer the HPLC analysis comprises a Waters HPLC system equipped with a variable wavelength UV detector using symmetry C18, 250 column with a 5 μm particle size, at a wavelength of 257 nm, column temperature of 40° C. The mobile phase comprises
# The capsules of Example 9B were charged for stability for about 3 months at different temperature conditions such as 2-8° C., 25° C. and the samples were analyzed by an HPLC procedure described above.
# The powder composition of Example 13 was filled in amber coloured glass vials and sealed. Both initial sample and samples exposed at 25° C./60% RH (relative humidity), 30° C./65% RH, 40° C./75% RH for period of 3 days were analyzed for impurities by using HPLC as per the process described above.
# The capsules have been exposed at 25° C./60% RH, 30° C./65% RH and 40° C./75% RH for a period of 3 months and data has been tabulated in Table 13.
# The capsules packed in HDPE containers were exposed to different stability conditions such as 40° C./75% RH, 30° C./65% RH, 25° C./60% RH, 2-8° C. for about 6-12 months.
# [3] = test system: 34 human cancer cell lines; assay: In vitro cell growth assay, Sulphorhodamine B (SRB); format: cell-based; conditions: 48 h exposure
# Method: Cell proliferation was evaluated by Sulphorhodamine B (SRB) assay where the amount of dye bound to the cells after staining gives a measure of cell growth. Refer to: JNCI, vol 83, No. 11, Jun. 5, 1991, which is incorporated herein by reference.
# Briefly, cells (34 human cancer cell lines represented by bladder, breast, CNS, colon, epidermoid, lung, ovarian, melanoma, prostate, renal and uterine cancers) were seeded on a 96-well cell culture plates at a concentration of 10,000 cells per well and incubated at 37 degree C. in a CO2 incubator. Twenty-four hours later, cells were treated with different concentrations of […] dissolved in DMSO to a final concentration of 0.05% in the culture medium and exposed for 48 h. Cells were fixed by adding ice-cold 50% trichloroacetic acid (TCA) and incubating for 1 h at 4° C. The plates were washed with distilled water, air dried and stained with SRB solution (0.4% wt/vol in 1% Acetic acid) for 10 min at room temperature. Unbound SRB was removed by washing thoroughly with 1% acetic acid and the plates were air-dried. The bound SRB stain was solubilized with 10 mM Tris buffer, and the optical densities were read on a spectrophotometric plate reader at a single wavelength of 515 nm. […] From the optical densities the percentage growths were calculated using the following formulae: […]
smiles,measurement,setting,value
"CC[C@@]1(O)C(=O)OCc2c1cc1n(c2=O)[C@@H](OCCO)c2cc3ccccc3nc2-1 [DRF-(5S,20S)-1042, 5(S)-(2′-hydroxyethoxy)-20(S)-camptothecin]",Bulk density,[1]; drug substance,0.17 g/mL
same,Carr Index,[1]; drug substance,46.5%
same,Hausner ratio,[1]; drug substance,1.9
same,Moisture content,[1]; drug substance,0.2 % w/w
same,Tapped density,[1]; drug substance,0.31 g/mL
same,Particle size D10,[1]; lot used for the examples,D10 = 3.6 μm
same,Particle size D50,[1]; lot used for the examples,D50 = 10.9 μm
same,Particle size D90,[1]; lot used for the examples,D90 = 34.0 μm
same,solubility at 24 h,physchem; fessif,~41 µg/mL
same,solubility at 24 h,"physchem; pH 12.6, aqueous buffer",4160 µg/mL
same,solubility at 24 h,"physchem; pH 12.73, aqueous buffer",6670 µg/mL
same,"A = DRF (5R,20S)-1042",[2],1.11 % Peak Area
same,B = Decarboxylated impurity,[2],0.02 % Peak Area
same,C = Dimer impurity,[2],0.35 % Peak Area
same,"D = Total impurities excluding DRF (5R,20S)-1042",[2],0.96 % Peak Area
same,GI50,[3],5 µM
